In patent US5445951A, “Regioselective enzymatic deacylation of sucrose esters in anhydrous organic media” (priority 1993, dated 1995):
Several values for one entry are separate records, joined by “and”; a condition that tells them apart may be missing. Equal entries are not always repeated. Where two headings read alike, the source gives them in different places.

Legend:
lipase AY 30 [1] = assay: Effect of the solvent on lipase AY 30 SOA deacetylation; format: biochemical, Candida cylindracea; conditions: lipase AY 30, solvent as labelled, 24 hrs
Experimental: (§1) Identical enzyme catalyzed SOA deacetylations were run in numerous anhydrous solvents. After 24 hrs incubation an aliquot was analyzed by HPLC.
(§2) Enzyme and Solvent Screening for SOA Deacetylation. A scintillation vial was charged successively with 100 mg of powdered enzyme as received or prepared as described and 1.0 ml of 20 mM sucrose octaacetate (SOA) dissolved in an organic solvent. Following a 5 sec sonication, the vial was incubated in a controlled-temperature shaker at 45° C. and 300 RPM for 24 hrs. A 200 μl aliquot of the reaction mixture was withdrawn and centrifuged. The supernatant was collected and evaporated under a stream of N2. The residue was reconstituted in 200 μl of acetonitrile and 10 μl of this solution was analyzed by HPLC.

[2] = system: lipase AY 30 deposited on Hyflo Super Cell; assay: Solvent effect on lipase AY 30 deposited on Hyflo Super Cell catalyzed deacetylation of SOA; format: biochemical, Candida cylindracea; conditions: immobilized lipase AY 30, 24 hrs
Experimental: (§3) Alcalase and lipase AY 30 were deposited on Hyflo Super Cell and used as catalysts for SOA deacetylation reactions in several anhydrous solvents.
(§4) Enzyme immobilization. The pH of a solution of 900 mg of buffered alcalase in 18 ml of water was adjusted to 9.0 with dilute NaOH. Hyflo super cell (6 g) was added and the slurry thoroughly mixed. […] Lipase AY 30 was immobilized in the same manner except that the protein solution was adjusted to pH 7.0 with sodium phosphate.
as §2

[3] = n-octanol/water, cited from earlier work
alcalase [4] = biological target: T1, alcalase (Bacillus licheniformis, UniProt P00780); assay: Solvent effect on alcalase catalyzed deacetylation of SOA; format: biochemical; conditions: 24 hrs; for SheptaA: total of 1'-OH and 6'-OH heptaacetates; for SOA / ShexaA: solvent as labelled
T1 construct: purchased Novo Nordisk (gift)
T1 sequence (P00780 106-379): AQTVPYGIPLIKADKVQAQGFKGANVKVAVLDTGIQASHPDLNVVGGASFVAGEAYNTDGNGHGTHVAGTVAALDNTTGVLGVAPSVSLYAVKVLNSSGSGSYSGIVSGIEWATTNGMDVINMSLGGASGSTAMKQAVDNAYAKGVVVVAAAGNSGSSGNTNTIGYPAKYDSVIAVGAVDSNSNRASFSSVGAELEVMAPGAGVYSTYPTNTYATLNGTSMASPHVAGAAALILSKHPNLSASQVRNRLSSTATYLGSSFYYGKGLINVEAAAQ
Experimental: as §1
Enzyme Precipitation. Alcalase was prepared by adding 37.5 ml cold acetone (-20° C.) to 25 ml of alcalase solution as supplied by Novo. The aqueous acetone was decanted and the residue dissolved in 25 ml of pH 9.0 glycine--NaOH buffer. The pH of this solution was adjusted to 9.0 with a few drops of dilute NaOH solution. Cold acetone (37.5 ml at -20° C.) was added to the buffered alcalase solution and the precipitate collected by filtration on a medium porosity glass funnel and dried overnight at 2 millitorr. The resulting pellet was ground to a fine powder and stored at 4° C. over saturated aqueous potassium carbonate (RH: 43%) for 24 hrs.
as §2

[5] = system: alcalase deposited on Hyflo Super Cell; assay: Solvent effect on alcalase deposited on Hyflo Super Cell catalyzed deacetylation of SOA; format: biochemical, Bacillus licheniformis; conditions: immobilized alcalase, 4 hour incubation; for SheptaA: total of 1'-OH and 6'-OH heptaacetates
Experimental: as §3, §4
as §2, with “Following a 5 sec sonication, the vial was incubated in a controlled-temperature shaker at 45° C. and 300 RPM for 24 hrs.” left out

proleather [6] = assay: Solvent effect on proleather catalyzed deacetylation of SOA; format: biochemical, Bacillus subtilis; conditions: 24 hrs; for SheptaA: total of 1'-OH and 6'-OH heptaacetates; for SOA / ShexaA: solvent as labelled
Experimental: as §1
(§5) The pH of commercial powdered enzymes was adjusted in the following way: The enzyme (3 g) was dissolved in 25 ml of an appropriate buffer and the pH adjusted with dilute NaOH or citric/phosphoric acid solution. Cold acetone (37.5 ml at -20° C.) was added and the precipitate collected on a medium porosity glass funnel and dried overnight at 2 millitorr. The protein pellet was ground to a fine powder and equilibrated at 4° C. over saturated aqueous potassium carbonate (RH: 43%) for 24 hrs.
as §2

lipase AY 30 [7] = assay: Effect of the solvent on lipase AY 30 catalyzed deacylation of SOP; format: biochemical, Candida cylindracea; conditions: for ShexaP (4.2 min) / SheptaP's (8.9 min) / SheptaP's (9.4 min) / SheptaP's ([…]): lipase AY 30, 24 hrs; for ShexaP (4.2 min): HPLC peak 4.2 min; for SheptaP's (8.9 min): HPLC peak 8.9 min; for SheptaP's (9.4 min): HPLC peak 9.4 min; for SheptaP's ([…]): HPLC peak […]; for SOA: lipase AY 30, solvent as labelled, 200 mM butanol, 24 hrs, peak 21.4 min; as to SheptaP's ([…]): HPLC peak 8.2 min
Experimental: Identical SOP deacylations were performed with lipase AY 30 or protease type XXIII in numerous anhydrous organic solvents, as shown in Tables 12 and 13.
as §2, with “Solvent” for “Enzyme and Solvent”, “screening” for “Screening”, “SOP deacylation.” for “SOA Deacetylation.”, “lipase AY 30” for “powdered enzyme as received”, “protease type XXIII” for “prepared”, “octapropionate (SOP) and 200mM butanol” for “octaacetate (SOA)”

lipase AP 12 [8] = assay: Solvent effect on lipase AP 12 catalyzed deacetylation of SOA; format: biochemical, Aspergillus niger; conditions: lipase AP 12, solvent as labelled, 24 hrs
Experimental: as §1, §5, §2

proleather [9] = assay: Nucleophile screening for proleather catalyzed deacetylation of SOA in diisopropyl ether; format: biochemical, Bacillus subtilis; conditions: nucleophile 200 mM; for % conv: 66 hrs; for regiochem: peak height ratio 1'-OH / 6'-OH heptaacetate
Experimental: (§6) Nucleophile screening for alcalase, proleather or lipase AP 12 catalyzed deacetylation of SOA. A scintillation vial was charged successively with 100 mg of powdered enzyme prepared as described, 1.0 ml of 20 mM sucrose octaacetate (SOA) and 200 mM of the nucleophile dissolved in diisopropyl ether. Following a 5 sec sonication, the vial was incubated in a controlled-temperature shaker at 45° C. and 300 RPM for 66 hrs. A 200 μl aliquot of the reaction mixture was withdrawn and centrifuged. The supernatant was collected and evaporated under a stream of N2. The residue was reconstituted in 200 μl of acetonitrile and 10 μl of this solution was analyzed by HPLC. For screening concentration effects on enzyme activity, the same protocol was followed except the nucleophile concentration was varied from 0 to 2000 mM.

alcalase [10] = biological target: T1, alcalase; assay: Nucleophile screening for alcalase catalyzed deacetylation of SOA in diisopropyl ether; format: biochemical; conditions: nucleophile 200 mM, peak height ratio 1'-OH / 6'-OH heptaacetate
Experimental: as §6

lipase AP 12 [11] = assay: Nucleophile screening for lipase AP 12 catalyzed deacetylation of SOA in diisopropyl ether; format: biochemical, Aspergillus niger; conditions: lipase AP 12, nucleophile 200 mM, 66 hrs
Experimental: as §6

| Compound | SOA (lipase AY 30 [1]) | SheptaA (lipase AY 30 [1]) | ShexaA (lipase AY 30 [1]) | SheptaA (alcalase [4]) | SOA (alcalase [4]) | ShexaA (alcalase [4]) | SOA (lipase AP 12 [8]) | SheptaA (lipase AP 12 [8]) | ShexaA (lipase AP 12 [8]) | regiochem (alcalase [10]) | SOA [2] | SheptaA [2] | SOA [5] | ShexaA [5] | SheptaA [5] | SheptaA (proleather [6]) | SOA (proleather [6]) | ShexaA (proleather [6]) | % conv (proleather [9]) | regiochem (proleather [9]) | other results |
| --- | --- | --- | --- | --- | --- | --- | --- | --- | --- | --- | --- | --- | --- | --- | --- | --- | --- | --- | --- | --- | --- |
| CC(C)OC(C)C [diisopropyl ether] | 29.6% | 39.6% | 30.9% | 22.3% | 75.2% | 2.5% | 82.7% | 15.7% | 1.6% |  | 85.7% | 14.3% | 89.3% | 0.8% | 9.9% | 25.9% | 70.6% | 3.5% |  |  | log P [3]: 1.9; ShexaP (4.2 min) (lipase AY 30 [7]): 13.0%; SheptaP's (8.9 min) (lipase AY 30 [7]): 1.5%; SheptaP's (9.4 min) (lipase AY 30 [7]): 13.5%; SheptaP's ([…]) (lipase AY 30 [7]): 17.3%; SOA (lipase AY 30 [7]): 54.7% |
| CCCO [propanol] |  |  |  |  |  |  |  |  |  | 8.8 |  |  |  |  |  |  |  |  | 46.4% | 5.3 | % conv (lipase AP 12 [11]): 26.2% |
| COc1ccccc1 [anisole] | 86.1% | 9.6% | 4.3% | 3.9% | 96.1% | 0% | 96.2% | 3.8% | 0% |  | 98.2% | 1.2% | 98.0% | 0% | 2.0% | 19.4% | 79.2% | 1.4% |  |  | log P [3]: 2.1 |
| ClC(Cl)(Cl)Cl [CCl4, carbon tetrachloride] | 86.9% | 10.4% | 2.7% | 5.2% | 94.8% | 0% | 95.1% | 4.3% | 0.6% |  | 97.5% | 2.5% | 98.6% | 0% | 1.4% | 9.6% | 89.1% | 1.3% |  |  | log P ([3]; from Laane et al.): 3.0 and 3.1; ShexaP (4.2 min) (lipase AY 30 [7]): 0%; SheptaP's (8.9 min) (lipase AY 30 [7]): 0%; SheptaP's (9.4 min) (lipase AY 30 [7]): 0.7%; SheptaP's ([…]) (lipase AY 30 [7]): 1.1%; SOA (lipase AY 30 [7]): 98.2% |

Further lines, with some results ahead:

| SOA (lipase AY 30 [1]) | SheptaA (lipase AY 30 [1]) | ShexaA (lipase AY 30 [1]) | SheptaA (alcalase [4]) | SOA (alcalase [4]) | ShexaA (alcalase [4]) | SOA (lipase AP 12 [8]) | SheptaA (lipase AP 12 [8]) | ShexaA (lipase AP 12 [8]) | regiochem (alcalase [10]) | Compound | SOA [2] | SheptaA [2] | SOA [5] | ShexaA [5] | SheptaA [5] | SheptaA (proleather [6]) | SOA (proleather [6]) | ShexaA (proleather [6]) | % conv (proleather [9]) | regiochem (proleather [9]) | other results |
| --- | --- | --- | --- | --- | --- | --- | --- | --- | --- | --- | --- | --- | --- | --- | --- | --- | --- | --- | --- | --- | --- |
|  |  |  |  |  |  |  |  |  | 8.1 | OCC1CCCCC1 [cyclohexylmethanol] |  |  |  |  |  |  |  |  | 42.8% | 4.4 | % conv (lipase AP 12 [11]): 24.8% |
|  |  |  |  |  |  |  |  |  | 8.6 | OCCC1CCCCN1 (stereo not shown) [2-piperidineethanol] |  |  |  |  |  |  |  |  | 41.3% | 5.1 | % conv (lipase AP 12 [11]): 10.4% |
